{
  "source": "patent US5763408A",
  "about": "“Amino acid derivatives and application thereof” (Fuji Photo Film Co., Ltd., priority 1992, dated 1998)",
  "key": {"B16-BL6 melanoma cells": {"tested_on": "B16-BL6 melanoma cells", "test": "Experimental metastasis test of B16-BL6 melanoma cells in lung", "assay_type": "in vivo, C57BL/6 female mice", "conditions": "day 14", "method": "Tumor metastasis inhibition activities of the compounds of the present invention were examined.\n(§1) A test compound and B16-BL6 melanoma cells, which have strong metastatic property, were mixed in PBS. 0.2 ml of the mixture was intravenously injected to each of C57BL/6 female mice, of which groups each consisted of 5 mice. The mixture injected (0.2 ml) contained 5×10^4 B16-BL6 cells. On the 14th day from the administration, number of melanoma cell colonies was determined and compared with that of control mice, which were administered with PBS."}, "[1]": {"tested_on": "L5178Y-ML25 T-lymphoma cells", "test": "Experimental metastasis of L5178Y-ML25 T-lymphoma cells (weights of livers and spleens)", "assay_type": "in vivo, CDF1 mice", "conditions": "day 14, in g (unit assumed); for Weight of spleen (Mean ± SD): PBS 0.23 ± 0.03, no lymphoma cell 0.12 ± 0.02; for Weight of liver (Mean ± SD): PBS 4.18 ± 0.30, no lymphoma cell 1.36 ± 0.02", "method": "A test compound and L5178Y-ML25 T-lymphoma cells were mixed in PBS. 0.2 ml of the mixture was intravenously injected to each of CDF1 mice, of which groups each consisted of 5 mice. The mixture injected (0.2 ml) contained 4×10^4 L5178Y-ML25 T-lymphoma cells. On the 14th day from the administration, weights of livers and spleens of mice were determined and compared with those of control mice, which were administered with PBS."}, "[2]": {"tested_on": "PRP (polyplatelet rich plasma)", "test": "Platelet aggregation inhibition activity (ADP-induced aggregation in PRP)", "assay_type": "cell-based", "conditions": "for Platelet aggregation inhibition rate (%): test compound 1 mg/ml in PRP, ADP as inducer, five minutes later", "method": "Platelet aggregation inhibition activities of Compounds 1, 2, 3, 4, 5, 6, 7 and 15 were examined.\nA test compound was added to PRP (polyplatelet rich plasma, 3×10^8 cells/ml) so that the plasma contained the compound at a concentration of 1 mg/ml and the plasma was added with 10 μl of ADP as an aggregation inducing substance. Five minutes later, aggregation ratio was determined by a chronologic whole blood aggregation ability measuring apparatus to calculate platelet aggregation inhibition ratio."}, "colon 26/M3.1 cells": {"tested_on": "colon 26/M3.1 cells", "test": "Experimental metastasis test of colon 26/M3.1 cells in lung", "assay_type": "in vivo, C57BL/6 female mice", "conditions": "Table 13, 1000 μg/mouse, day 14, PBS control 148 ± 12", "method": "as §1, with “colon 26/M3.1” for “B16-BL6 melanoma”, “4×10^4 colon 26/M3.1” for “5×10^4 B16-BL6”, “of” for “of melanoma cell”, “colonies in lung” for “colonies”\nA segment peptide of fibronectin, Gly-Arg-Gly-Asp-Ser (GRGDS), of which tumour metastasis inhibition activities have been known, was used as a comparative sample."}, "[3]": {"conditions": "Table 4, 500 μg/mouse, PBS control 96 ± 14"}, "[4]": {"conditions": "Table 5, 1000 μg/mouse, PBS control 118 ± 15"}, "[5]": {"conditions": "Table 6, 500 μg/mouse, PBS control 103 ± 30"}, "[6]": {"conditions": "Table 7, 500 μg/mouse, PBS control 101 ± 28"}, "[7]": {"conditions": "Table 11, 500 μg/mouse, PBS control 114 ± 28"}},
  "data": [
    {"smiles": "N=C(N)NCCC[C@H](NC(=O)CC(=O)N[C@@H](CC(=O)O)C(=O)O)C(=O)O", "note": "[Compound 1]", "values": [
      {"measurement": "Number of colonies (Mean ± SD)", "setting": "B16-BL6 melanoma cells; Table 2, 1000 μg/mouse i.v. mixed with cells, PBS control 141 ± 16", "result": "46 ± 10"},
      {"measurement": "Number of colonies (Mean ± SD)", "setting": "B16-BL6 melanoma cells; [3]", "result": "13 ± 6"},
      {"measurement": "Number of colonies (Mean ± SD)", "setting": "B16-BL6 melanoma cells; [4]", "result": "25 ± 8"},
      {"measurement": "Number of colonies (Mean ± SD)", "setting": "B16-BL6 melanoma cells; [5]", "result": "63 ± 23"},
      {"measurement": "Number of colonies (Mean ± SD)", "setting": "B16-BL6 melanoma cells; [6]", "result": "19 ± 11"},
      {"measurement": "Weight of spleen (Mean ± SD)", "setting": "[1]; 100 μg/mouse", "result": "0.18 ± 0.02"},
      {"measurement": "Weight of liver (Mean ± SD)", "setting": "[1]; 100 μg/mouse", "result": "3.09 ± 0.78"},
      {"measurement": "Weight of spleen (Mean ± SD)", "setting": "[1]; 500 μg/mouse", "result": "0.20 ± 0.02"},
      {"measurement": "Weight of liver (Mean ± SD)", "setting": "[1]; 500 μg/mouse", "result": "2.98 ± 0.29"},
      {"measurement": "Weight of spleen (Mean ± SD)", "setting": "[1]; 1000 μg/mouse", "result": "0.14 ± 0.01"},
      {"measurement": "Weight of liver (Mean ± SD)", "setting": "[1]; 1000 μg/mouse", "result": "1.84 ± 0.36"},
      {"measurement": "IC50", "setting": "[2]; platelet aggregation, PRP, ADP", "result": 2.4, "unit": "mM"},
      {"measurement": "Platelet aggregation inhibition rate (%)", "setting": "[2]", "result": 57, "unit": "%"},
      {"measurement": "Number of colonies (Mean ± SD)", "setting": "colon 26/M3.1 cells", "result": "31 ± 26"}
    ]},
    {"smiles": "N=C(N)NCCC[C@@H](NC(=O)CC(=O)N[C@@H](CC(=O)O)C(=O)O)C(=O)O", "note": "[Compound 2]", "values": [
      {"measurement": "Number of colonies (Mean ± SD)", "setting": "B16-BL6 melanoma cells; Table 3, 500 μg/mouse, PBS control 81 ± 23", "result": "39 ± 13"},
      {"measurement": "Number of colonies (Mean ± SD)", "setting": "B16-BL6 melanoma cells; Table 3, 1000 μg/mouse, PBS control 81 ± 23", "result": "3 ± 2"},
      {"measurement": "Number of colonies (Mean ± SD)", "setting": "B16-BL6 melanoma cells; [3]", "result": "23 ± 9"},
      {"measurement": "Number of colonies (Mean ± SD)", "setting": "B16-BL6 melanoma cells; [5]", "result": "72 ± 15"},
      {"measurement": "Number of colonies (Mean ± SD)", "setting": "B16-BL6 melanoma cells; [6]", "result": "38 ± 16"},
      {"measurement": "Platelet aggregation inhibition rate (%)", "setting": "[2]", "result": 53, "unit": "%"}
    ]},
    {"smiles": "CNC(=O)C(CC(=O)O)NC(=O)CC(=O)NC(CCCNC(=N)N)C(=O)O", "note": "(stereo not shown) [Compound 8]", "values": [
      {"measurement": "Number of colonies (Mean ± SD)", "setting": "B16-BL6 melanoma cells; [3]", "result": "55 ± 12"},
      {"measurement": "Number of colonies (Mean ± SD)", "setting": "B16-BL6 melanoma cells; [4]", "result": "24 ± 9"}
    ]},
    {"smiles": "CNC(=O)C(CCCNC(=N)N)NC(=O)CC(=O)NC(CC(=O)O)C(=O)O", "note": "(stereo not shown) [Compound 12]", "values": [
      {"measurement": "Number of colonies (Mean ± SD)", "setting": "B16-BL6 melanoma cells; [3]", "result": "58 ± 20"},
      {"measurement": "Number of colonies (Mean ± SD)", "setting": "B16-BL6 melanoma cells; [4]", "result": "19 ± 6"}
    ]},
    {"smiles": "CNC(=O)C(CCCNC(=N)N)NC(=O)CC(=O)NC(CC(=O)O)C(=O)NC", "note": "(stereo not shown) [Compound 14]", "values": [
      {"measurement": "Number of colonies (Mean ± SD)", "setting": "B16-BL6 melanoma cells; [3]", "result": "94 ± 26"},
      {"measurement": "Number of colonies (Mean ± SD)", "setting": "B16-BL6 melanoma cells; [4]", "result": "69 ± 7"}
    ]},
    {"smiles": "N=C(N)NCCC[C@H](NC(=O)CC(=O)N[C@@H](CC(=O)O)C(=O)N[C@@H](CO)C(=O)O)C(=O)O", "note": "[Compound 15]", "values": [
      {"measurement": "Number of colonies (Mean ± SD)", "setting": "B16-BL6 melanoma cells; [5]", "result": "39 ± 17"},
      {"measurement": "Number of colonies (Mean ± SD)", "setting": "B16-BL6 melanoma cells; [6]", "result": "32 ± 8"},
      {"measurement": "Platelet aggregation inhibition rate (%)", "setting": "[2]", "result": 47, "unit": "%"}
    ]},
    {"smiles": "N=C(N)NCCCC(NC(=O)CC(=O)NC(CC(=O)O)C(=O)O)C(=O)NCC(=O)O", "note": "(stereo not shown) [Compound 19]", "values": [
      {"measurement": "Number of colonies (Mean ± SD)", "setting": "B16-BL6 melanoma cells; Table 8, 1000 μg/mouse, PBS control 168 ± 28", "result": "32 ± 8"},
      {"measurement": "Number of colonies (Mean ± SD)", "setting": "B16-BL6 melanoma cells; Table 9, 1000 μg/mouse, PBS control 168 ± 28", "result": "32 ± 8"}
    ]},
    {"smiles": "N=C(N)NCCCC(NC(=O)C(=O)NC(CC(=O)O)C(=O)O)C(=O)O", "note": "(stereo not shown) [Compound 33]", "values": [
      {"measurement": "Number of colonies (Mean ± SD)", "setting": "B16-BL6 melanoma cells; [7]", "result": "51 ± 18"}
    ]},
    {"smiles": "N=C(N)NCCCC(NCC(=O)NC(CC(=O)O)C(=O)O)C(=O)O", "note": "(stereo not shown) [Compound 34]", "values": [
      {"measurement": "Number of colonies (Mean ± SD)", "setting": "B16-BL6 melanoma cells; [7]", "result": "51 ± 19"}
    ]},
    {"smiles": "N=C(N)NCCCC(NC(=O)CNC(CC(=O)O)C(=O)O)C(=O)O", "note": "(stereo not shown) [Compound 35]", "values": [
      {"measurement": "Number of colonies (Mean ± SD)", "setting": "B16-BL6 melanoma cells; [7]", "result": "52 ± 14"}
    ]}
  ]
}
